Publication PMC6329299 (The pharmacogenomics journal, 2015)
Where a name gives a salt, the structure may show the parent alone.

Key:
[1] = Hydrolysis by human kidney s9 fractions; format: in vitro ADME; settings: substrate 100 μM, 3 concentrations of HKS9
Hydrolysis = settings: for Vmax: HLS9, PBS pH 7.4, 37 °C, unit for ACEIs other than enalapril; for Km: human, pooled human liver s9 fractions (HLS9), pH 7.4; for Hydrolysis to active metabolite by human liver s9 fractions: prodrug 100 μM, 3 concentrations of HLS9
[2] = Hydrolysis by human intestine s9 fractions; format: in vitro ADME; settings: substrate 100 μM, 3 concentrations of HIS9
CES1 variant G143E [3] = target: T1, CES1 variant G143E (Homo sapiens, UniProt P23141, G142E); assay: Hydrolysis by s9 fractions of cells stably expressing the CES1 variant G143E; settings: prodrug 100 μM, 3 concentrations of cell s9
T1 sequence (P23141 18-568 isoform P23141-2 G143E limits assumed): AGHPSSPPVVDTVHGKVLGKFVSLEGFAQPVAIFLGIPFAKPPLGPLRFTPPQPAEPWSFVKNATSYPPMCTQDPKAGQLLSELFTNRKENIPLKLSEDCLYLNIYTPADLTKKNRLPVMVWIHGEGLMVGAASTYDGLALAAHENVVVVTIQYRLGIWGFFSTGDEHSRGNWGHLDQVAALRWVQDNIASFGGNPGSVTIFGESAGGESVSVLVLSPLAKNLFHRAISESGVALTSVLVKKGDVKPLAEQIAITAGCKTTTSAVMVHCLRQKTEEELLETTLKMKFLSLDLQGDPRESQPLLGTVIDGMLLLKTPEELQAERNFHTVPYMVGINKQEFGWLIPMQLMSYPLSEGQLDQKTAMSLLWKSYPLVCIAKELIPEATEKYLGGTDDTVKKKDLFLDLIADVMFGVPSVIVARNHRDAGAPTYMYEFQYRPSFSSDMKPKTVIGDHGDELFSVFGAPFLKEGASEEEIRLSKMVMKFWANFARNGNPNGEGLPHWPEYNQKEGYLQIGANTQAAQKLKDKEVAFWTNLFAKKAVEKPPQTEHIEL

wild type (WT) CES1 = target: T2, wild type (WT) CES1 (Homo sapiens, UniProt P23141); settings: prodrug 100 μM, 3 concentrations of cell s9
T2 sequence (P23141 18-568 isoform P23141-2 limits assumed): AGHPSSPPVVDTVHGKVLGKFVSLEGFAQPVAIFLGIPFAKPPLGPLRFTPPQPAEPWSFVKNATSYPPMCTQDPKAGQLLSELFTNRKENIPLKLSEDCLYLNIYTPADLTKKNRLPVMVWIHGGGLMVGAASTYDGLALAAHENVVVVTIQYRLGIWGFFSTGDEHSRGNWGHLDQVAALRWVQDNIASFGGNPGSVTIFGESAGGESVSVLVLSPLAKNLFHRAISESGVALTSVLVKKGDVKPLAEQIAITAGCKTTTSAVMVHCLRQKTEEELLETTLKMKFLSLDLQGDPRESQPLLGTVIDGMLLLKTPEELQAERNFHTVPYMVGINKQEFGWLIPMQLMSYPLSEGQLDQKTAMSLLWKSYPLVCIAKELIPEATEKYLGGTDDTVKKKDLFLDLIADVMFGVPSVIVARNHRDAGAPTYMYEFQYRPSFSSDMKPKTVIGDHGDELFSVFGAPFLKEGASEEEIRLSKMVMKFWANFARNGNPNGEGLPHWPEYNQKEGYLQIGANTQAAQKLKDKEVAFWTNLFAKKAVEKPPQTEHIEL

[4] = ref [24]; cited from earlier work
CES1 variant G143E [5] = target: T1, CES1 variant G143E; settings: in vitro function study; ref [13], [15], [22], [23]; cited from earlier work
[6] = Japanese cancer patients receiving irinotecan; ref [21]; cited from earlier work
[7] = after oseltamivir; ref [26]; cited from earlier work
[8] = ref [20]; cited from earlier work
[9] = test system: CES1 in individual human liver s9 fractions; format: in vitro ADME; settings: CES1 expression comparable to pooled HLS9
not read [10] = substrate: CCOC(=O)[C@H](CCc1ccccc1)N[C@@H](C)C(=O)N1Cc2cc(OC)c(OC)cc2C[C@H]1C(=O)O; assay: not read; settings: other: WT CES1 cell s9; pH 7.4
not read [11] = substrate: CCC[C@H](N[C@@H](C)C(=O)N1[C@H](C(=O)O)C[C@@H]2CCCC[C@@H]21)C(=O)OCC; assay: not read; settings: other: WT CES1 cell s9; pH 7.4
not read [12] = substrate: CCC(=O)O[C@@H](O[P@](=O)(CCCCc1ccccc1)CC(=O)N1C[C@H](C2CCCCC2)C[C@H]1C(=O)O)C(C)C; assay: not read; settings: other: WT CES1 cell s9; pH 7.4
not read [13] = substrate: CCOC(=O)[C@H](CCc1ccccc1)N[C@@H](C)C(=O)N1[C@H](C(=O)O)C[C@@H]2CCC[C@@H]21; assay: not read; settings: other: WT CES1 cell s9; pH 7.4
not read [14] = substrate: CCOC(=O)[C@H](CCc1ccccc1)N[C@@H](C)C(=O)N1CCC[C@H]1C(=O)O; assay: not read; settings: other: WT CES1 cell s9; pH 7.4

Molecule: CCC(=O)O[C@@H](O[P@](=O)(CCCCc1ccccc1)CC(=O)N1C[C@H](C2CCCCC2)C[C@H]1C(=O)O)C(C)C [Fosinopril, Fosinopril sodium salt]
- Hydrolysis by human kidney s9 fractions [1]: No appreciable activation
- Vmax (Hydrolysis): 1.4 ± 0.2 nmole/min/mg protein
- Km (Hydrolysis): 0.471 ± 0.212 mM
- Hydrolysis to active metabolite by human liver s9 fractions (Hydrolysis): efficiently hydrolyzed
- Hydrolysis by human intestine s9 fractions [2]: No appreciable activation

Molecule: CCOC(=O)[C@H](CCc1ccccc1)N[C@@H](C)C(=O)N1Cc2cc(OC)c(OC)cc2C[C@H]1C(=O)O [Moexipril, moexipril hydrochloride]
- Hydrolysis by human kidney s9 fractions [1]: No appreciable activation
- Vmax (Hydrolysis): 4.4 ± 0.3 nmole/min/mg protein
- Km (Hydrolysis): 1.46 ± 0.266 mM
- Hydrolysis to active metabolite by human liver s9 fractions (Hydrolysis): efficiently hydrolyzed
- Hydrolysis by human intestine s9 fractions [2]: No appreciable activation

Molecule: CC(=O)Oc1ccc([N+](=O)[O-])cc1 [PNPA, p-nitrophenyl acetate]
- Hydrolysis by human kidney s9 fractions [1]: readily hydrolyzed
- Hydrolysis by human intestine s9 fractions [2]: readily hydrolyzed

Molecule: CCC[C@H](N[C@@H](C)C(=O)N1[C@H](C(=O)O)C[C@@H]2CCCC[C@@H]21)C(=O)OCC [Perindopril, perindopril erbumine]
- Hydrolysis by human kidney s9 fractions [1]: No appreciable activation
- Vmax (Hydrolysis): 18.1 ± 0.8 nmole/min/mg protein
- Km (Hydrolysis): 1.77 ± 0.165 mM
- Hydrolysis to active metabolite by human liver s9 fractions (Hydrolysis): efficiently hydrolyzed
- Hydrolysis by human intestine s9 fractions [2]: No appreciable activation

Molecule: CCOC(=O)[C@H](CCc1ccccc1)N[C@@H](C)C(=O)N1[C@H](C(=O)O)C[C@@H]2CCC[C@@H]21 [Ramipril, ramipril]
- Active metabolite after incubation with CES1 variant G143E (CES1 variant G143E [3]): not detected
- Hydrolysis by human kidney s9 fractions [1]: No appreciable activation
- Hydrolysis to active metabolite by WT CES1 (wild type (WT) CES1): readily hydrolyzed
- Vmax (Hydrolysis): 18.1 ± 0.7 nmole/min/mg protein
- Km (Hydrolysis): 0.69 ± 0.0618 mM
- Hydrolysis to active metabolite by human liver s9 fractions (Hydrolysis): efficiently hydrolyzed
- Hydrolysis by human intestine s9 fractions [2]: No appreciable activation

Molecule: COC(=O)[C@H](c1ccccc1Cl)N1CC[C@@H](S)/C(=C\C(=O)O)C1 [clopidogrel active metabolite]
- concentrations higher in patients carrying heterozygous 143E relative to 143GG [4]: approximately 60%

Molecule: COC(=O)[C@H](c1ccccc1Cl)N1CCc2sccc2C1 [clopidogrel]
- Function of the G143E variant for metabolism of the substrate (CES1 variant G143E [5]): loss-of-function

Molecule: CCc1c2c(nc3ccc(OC(=O)N4CCC(N5CCCCC5)CC4)cc13)-c1cc3c(c(=O)n1C2)COC(=O)[C@]3(O)CC [irinotecan]
- median AUC ratios of metabolites SN-38 and SN-38G to parent compound, higher in CES1P1VAR heterozygous and homozygous patients vs CES1P1/CES1P1 [6]: 24%

Molecule: COC(=O)C(c1ccccc1)C1CCCCN1 (centres unmarked) [methylphenidate]
- Function of the G143E variant for metabolism of the substrate (CES1 variant G143E [5]): loss-of-function

Molecule: CCC(CC)O[C@@H]1C=C(C(=O)O)C[C@H](N)[C@H]1NC(C)=O [oseltamivir carboxylate]
- mean Cmax lower in 143E heterozygotes than in non-carriers [7]: 17.5%

Molecule: CCOC(=O)C1=C[C@@H](OC(CC)CC)[C@H](NC(C)=O)[C@@H](N)C1 [oseltamivir]
- Metabolism in healthy subjects with different CES1/CES1VAR genotypes [8]: not significantly different

Molecule: CCOC(=O)[C@H](CCc1ccccc1)N[C@@H](C)C(=O)N1[C@H](C(=O)O)C[C@H]2CCCC[C@@H]21 [trandolapril]
- CES1 activity in the null-CES1 liver samples (some G143E non-carriers) [9]: inactive
- Function of the G143E variant for metabolism of the substrate (CES1 variant G143E [5]): loss-of-function

B1: wild type (WT) CES1 (Homo sapiens) (protein)
chain: AGHPSSPPVVDTVHGKVLGKFVSLEGFAQPVAIFLGIPFAKPPLGPLRFTPPQPAEPWSFVKNATSYPPMCTQDPKAGQLLSELFTNRKENIPLKLSEDCLYLNIYTPADLTKKNRLPVMVWIHGGGLMVGAASTYDGLALAAHENVVVVTIQYRLGIWGFFSTGDEHSRGNWGHLDQVAALRWVQDNIASFGGNPGSVTIFGESAGGESVSVLVLSPLAKNLFHRAISESGVALTSVLVKKGDVKPLAEQIAITAGCKTTTSAVMVHCLRQKTEEELLETTLKMKFLSLDLQGDPRESQPLLGTVIDGMLLLKTPEELQAERNFHTVPYMVGINKQEFGWLIPMQLMSYPLSEGQLDQKTAMSLLWKSYPLVCIAKELIPEATEKYLGGTDDTVKKKDLFLDLIADVMFGVPSVIVARNHRDAGAPTYMYEFQYRPSFSSDMKPKTVIGDHGDELFSVFGAPFLKEGASEEEIRLSKMVMKFWANFARNGNPNGEGLPHWPEYNQKEGYLQIGANTQAAQKLKDKEVAFWTNLFAKKAVEKPPQTEHIEL
- Km (not read [10]): 143.6 ± 24.5 µM
- Vmax (not read [10]): 1.8 ± 0.1 nmole/min/mg protein
- Vmax/Km (not read [10]): 12.4 μl/min/mg protein
- Km (not read [11]): 477.5 ± 60.9 µM
- Vmax (not read [11]): 8.3 ± 0.4 nmole/min/mg protein
- Vmax/Km (not read [11]): 17.4 μl/min/mg protein
- Km (not read [12]): 276.1 ± 83.2 µM
- Vmax (not read [12]): 1.6 ± 0.1 nmole/min/mg protein
- Vmax/Km (not read [12]): 5.7 μl/min/mg protein
- Km (not read [13]): 245.6 ± 39.9 µM
- Vmax (not read [13]): 11.6 ± 0.6 nmole/min/mg protein
- Vmax/Km (not read [13]): 47.1 μl/min/mg protein
- Km (not read [14]): 36.6 ± 4.5 µM
- Vmax (not read [14]): 389.0 ± 16.1 pmole/min/mg protein
- Vmax/Km (not read [14]): 10.6 μl/min/mg protein
